Experimental data published in patent EP0929544B1, “TRICYCLIC ANTITUMOR COMPOUNDS BEING FARNESYL PROTEIN TRANSFERASE INHIBITORS” (SCHERING CORPORATION, priority 1996, dated 1998).

The molecules below were run against T1, Farnesyl protein transferase (FPT) (Rattus norvegicus, UniProt Q02293+Q04631) (assay: In vitro enzyme assay: inhibition of farnesyl protein transferase (transfer of [3H]farnesyl from [3H]farnesyl pyrophosphate to Ras-CVLS)). Conditions: not given.
T1 construct: Farnesyl protein transferase (FPT) was partially purified from rat brain; from tissue; host or cells: rat brain
T1 sequence (Q02293 whole entry, one chain of several): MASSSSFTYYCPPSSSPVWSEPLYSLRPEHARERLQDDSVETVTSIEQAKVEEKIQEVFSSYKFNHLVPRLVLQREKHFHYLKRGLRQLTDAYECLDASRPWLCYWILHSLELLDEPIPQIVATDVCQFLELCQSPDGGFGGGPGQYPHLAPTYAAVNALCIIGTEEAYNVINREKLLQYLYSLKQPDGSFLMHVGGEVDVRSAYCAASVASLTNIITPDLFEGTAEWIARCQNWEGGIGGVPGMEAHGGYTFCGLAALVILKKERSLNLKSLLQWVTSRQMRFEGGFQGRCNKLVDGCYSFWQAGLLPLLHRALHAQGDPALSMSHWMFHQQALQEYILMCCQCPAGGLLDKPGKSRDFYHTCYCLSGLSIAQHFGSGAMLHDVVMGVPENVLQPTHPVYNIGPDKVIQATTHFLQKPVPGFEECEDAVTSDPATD
Type: biochemical
Source text: 1. In vitro enzyme assays: Inhibition of farnesyl protein transferase and geranylgeranyl protein transferase.
Farnesyl protein transferase (FPT) was partially purified from rat brain by ammonium sulfate fractionation followed by Q-Sepharose (Pharmacia, Inc.) anion exchange chromatography essentially as described by Yokoyama et al (Yokoyama, K., et al., (1991), A protein geranylgeranyltransferase from bovine brain: Implications for protein prenylation specificity, Proc. Natl. Acad. Sci USA 88: 5302-5306, the disclosure of which is incorporated herein by reference thereto). Human famesyl protein transferase was also expressed in E. coli, using cDNA clones encoding both the a and b subunits. The methods used were similar to those published (Omer, C. et al., (1993), Characterization of recombinant human farnesyl protein transferase: Cloning, expression, famesyl diphosphate binding, and functional homology with yeast prenyl-protein transferases, Biochemistry 32:5167-5176). Human famesyl protein transferase was partially-purified from the soluble protein fraction of E. coli as described above. […] Two forms of val^12-Ha-Ras protein were prepared as substrates for these enzymes, differing in their carboxy terminal sequence. One form terminated in cysteine-valine-leucine-serine (Ras-CVLS) the other in cystein-valine-leucine-leucine (Ras-CVLL). Ras-CVLS is a substrate for the famesyl protein transferase while Ras-CVLL is a substrate for geranylgeranyl protein transferase I. The cDNAs encoding these proteins were constructed so that the proteins contain an amino-terminal extension of 6 histidine residues. Both proteins were expressed in Escherichia coli and purified using metal chelate affinity chromatography. The radiolabelled isoprenyl pyrophosphate substrates, [^3H]farnesyl pyrophosphate and [^3H]geranylgeranyl pyrophosphate, were purchased from DuPont/New England Nuclear.
Several methods for measuring famesyl protein transferase activity have been described (Reiss et al 1990, Cell 62: 81; Schaber et al 1990, J. Biol. Chem. 265: 14701; Manne et al 1990, PNAS 87: 7541; and Barbacid & Manne 1993, U.S. Patent No. 5,185,248). […] The reaction was allowed to proceed for 30 minutes at room temperature and then stopped with 0.5 ml of 4% sodium dodecyl sulfate (SDS) followed by 0.5 ml of cold 30% TCA. Samples were allowed to sit on ice for 45 minutes and precipitated Ras protein was then collected on GF/C filter paper mats using a Brandel cell harvester. Filter mats were washed once with 6% TCA, 2% SDS and radioactivity was measured in a Wallac 1204 Betaplate BS liquid scintillation counter. Percent inhibition was calculated relative to the DMSO vehicle control.

Compound	IC50 [nM]
CN(C)CCCC(=O)N1CCC(C2c3ncc(Br)cc3CCc3cc(Cl)cc(Cl)c32)CC1 (single isomer, unassigned) [Example 6]	6.5

Same assay, conditions: @ 0.06 µg/µL

FPT inhibition (percent inhibition) [%@ 0.06 µg/µL]	Compound
21	O=C(CCCC(=O)N1CCC(C2c3ncc(Br)cc3CCc3cc(Cl)cc(Cl)c32)CC1)Nc1ccccc1 (single isomer, unassigned) [Example 19]
35	O=C(CCCC(=O)N1CCC(C2c3ncc(Br)cc3CCc3cc(Cl)cc(Cl)c32)CC1)NCc1ccccc1 (single isomer, unassigned) [Example 21]
41	O=C(NCCCCC(=O)N1CCC(C2c3ncc(Br)cc3CCc3cc(Cl)cc(Cl)c32)CC1)c1ccccc1 (single isomer, unassigned) [Example 22]
20	O=C(NCCCC(=O)N1CCC(C2c3ncc(Br)cc3CCc3cc(Cl)cc(Cl)c32)CC1)c1ccncc1 (single isomer, unassigned) [Example 24]

Same assay, conditions: @ 88 nM; read-out: FPT inhibition (percent inhibition)

inhibition at 0.088 µM [%]	Compound
12	O=C(CCCN1C(=O)c2ccccc2C1=O)N1CCC(C2c3ncc(Br)cc3CCc3cc(Cl)cc(Br)c32)CC1 (single isomer, unassigned; (+)) [Example 32, (+)-4-(3,10-DIBROMO-8-CHLORO-6,11-DIHYDRO-5H-BENZO[5,6]CYCLO-HEPTA[1,2-b]PYRIDIN-11-YL)-1-[4-(1,3-DIHYDRO-1,3-DIOXO-2H-ISOINDOL-2-YL)-1-OXOBUTYL)PIPERIDINE]

Same assay, conditions: @ 92 nM; read-out: FPT inhibition (percent inhibition)

inhibition at 0.092 µM [%]	Compound
0	O=C(CCCC(=O)N1CCC(C2c3ncc(Br)cc3CCc3cc(Cl)cc(Cl)c32)CC1)Nc1ccc(Cl)cc1 (single isomer, unassigned) [Example 20]

Same assay, conditions: @ 110 nM; read-out: FPT inhibition (percent inhibition)

inhibition at 0.11 µM [%]	Compound
43	CS(=O)(=O)NCC(=O)N1CCC(C2c3ncc(Br)cc3CCc3cc(Cl)cc(Cl)c32)CC1 (single isomer, unassigned; (+)) [Example 28]
36	NC(=O)NCC(=O)N1CCC(C2c3ncc(Br)cc3CCc3cc(Cl)cc(Cl)c32)CC1 (single isomer, unassigned; (+)) [Example 30]

Same assay, conditions: @ 330nM; read-out: FPT inhibition (percent inhibition)

inhibition at 0.33 µM [%]	Compound
47	CC(C)(C)OC(=O)NCCCC(=O)N1CCC(C2c3ncc(Br)cc3CCc3cc(Cl)cc(Cl)c32)CC1 (single isomer, unassigned) [Example 25]

Same assay, conditions: FPT INHIBITION; read-out: FPT IC50

Compound	IC50 [nM]
O=C(CCN1CCCCC1)N1CCC(C2c3ncc(Br)cc3CCc3cc(Cl)cc(Cl)c32)CC1 (single isomer, unassigned) [Example 9]	6
O=C(CCN1C(=O)CCC1=O)N1CCC(C2c3ncc(Br)cc3CCc3cc(Cl)cc(Cl)c32)CC1 (single isomer, unassigned) [Example 11]	76
CC(=O)NCCCC(=O)N1CCC(C2c3ncc(Br)cc3CCc3cc(Cl)cc(Cl)c32)CC1 (single isomer, unassigned) [Example 15]	63
O=C(NCCCC(=O)N1CCC(C2c3ncc(Br)cc3CCc3cc(Cl)cc(Cl)c32)CC1)Nc1ccccc1 (single isomer, unassigned) [Example 16]	> 100
O=C(CCCC(=O)N1CCC(C2c3ncc(Br)cc3CCc3cc(Cl)cc(Cl)c32)CC1)Nc1cccnc1 (single isomer, unassigned) [Example 17]	~100
O=C(CCCCCN1C(=O)C=CC1=O)N1CCC(C2c3ncc(Br)cc3CCc3cc(Cl)cc(Cl)c32)CC1 (single isomer, unassigned) [Example 23]	620
CC(C)(C)OC(=O)NCC(=O)N1CCC(C2c3ncc(Br)cc3CCc3cc(Cl)cc(Cl)c32)CC1 (single isomer, unassigned) [Example 26]	540
NCC(=O)N1CCC(C2c3ncc(Br)cc3CCc3cc(Cl)cc(Cl)c32)CC1 (single isomer, unassigned; (+)) [Example 3, (+)-1-(AMINOACETYL)-4-(3-BROMO-8,10-DICHLORO-6,11-DIHYDRO-5H-BENZO[5,6]CYCLO-HEPTA[1,2-b]PYRIDIN-11-YL) PIPERIDINE]	1100
NCCCC(=O)N1CCC(C2c3ncc(Br)cc3CCc3cc(Cl)cc(Cl)c32)CC1 (single isomer, unassigned; (+)) [Example 27, (+)-1-(4-AMINO-1-OXOBUTYL)-4-(3-BROMO-8,10-DICHLORO-6,11-DIHYDRO-5H-BENZO[5,6]CYCLO-HEPTA[1,2-b]PYRIDIN-11-YL) PIPERIDINE]	130
CCOC(=O)CC(=O)N1CCC([C@H]2c3ncc(Br)cc3CCc3cc(Cl)cc(Br)c32)CC1 [Example 45, (+)-ETHYL 4-(3,10-DIBROMO-8-CHLORO-6,11-DIHYDRO-5H-BENZO[5,6]CYCLO-HEPTA[1,2-b]PYRIDIN-11(R)-YL)-BETA-OXO-1-PIPERIDININE PROPANOATE]	28

Now from value to molecule:

IC50 [nM]	Compound
380	CN(C)CC(=O)N1CCC(C2c3ncc(Br)cc3CCc3cc(Cl)cc(Cl)c32)CC1 (single isomer, unassigned) [Example 4]
56	CN(C)CCC(=O)N1CCC(C2c3ncc(Br)cc3CCc3cc(Cl)cc(Cl)c32)CC1 (single isomer, unassigned) [Example 5]
22	CN(C)CCCCC(=O)N1CCC(C2c3ncc(Br)cc3CCc3cc(Cl)cc(Cl)c32)CC1 (single isomer, unassigned) [Example 7]
14	CCN(CC)CCC(=O)N1CCC(C2c3ncc(Br)cc3CCc3cc(Cl)cc(Cl)c32)CC1 (single isomer, unassigned) [Example 8]
61	NC(=O)CCC(=O)N1CCC(C2c3ncc(Br)cc3CCc3cc(Cl)cc(Cl)c32)CC1 (single isomer, unassigned) [Example 12]
390	NC(=O)N1CCC(C2c3ncc(Br)cc3CCc3cc(Cl)cc(Cl)c32)CC1 (single isomer, unassigned; (+)) [Example 1, (+)-4-(3-BROMO-8,10-DICHLORO-6,11-DIHYDRO-5H-BENZO[5,6]CYCLOHEPTA[1,2-b]PYRIDIN-11-YL)-1-PIPERIDINE CARBOXAMIDE, reference compound]
58	NC(=O)NCCCC(=O)N1CCC(C2c3ncc(Br)cc3CCc3cc(Cl)cc(Cl)c32)CC1 (single isomer, unassigned; (+)) [Example 31]
68	NC(=O)CC(=O)N1CCC([C@H]2c3ncc(Br)cc3CCc3cc(Cl)cc(Br)c32)CC1 [Example 47, 4-(3,10-DIBROMO-8-CHLORO-6,11-DIHYDRO-5H-BENZO[5,6]CYCLO-HEPTA[1,2-b]PYRIDIN-1(R)-YL)-BETA-OXO-1-PIPERIDININE PROPANAMIDE]
14	NC(=O)CCC(=O)N1CCC([C@H]2c3ncc(Br)cc3CCc3cc(Cl)cc(Br)c32)CC1 [Example 50, (+)-4-(3,10-DIBROMO-8-CHLORO-6,11-DIHYDRO-5H-BENZO[5,6]CYCLO-HEPTA[1,2-b]PYRIDIN-11(R)-YL)-GAMMA-OXO-1-PIPERIDININE BUTANAMIDE]

Same assay, conditions: read-out: FPT IC50; FPT INHIBITION

Compound	IC50 [nM]
O=C(O)CC(=O)N1CCC([C@H]2c3ncc(Br)cc3CCc3cc(Cl)cc(Br)c32)CC1 [Example 46, (+)-SODIUM 4-(3,10-DIBROMO-8-CHLORO-6,11-DIHYDRO-5H-BENZO[5,6]CYCLO-HEPTA[1,2-b]PYRIDIN-11(R)-YL)-BETA-OXO-1-PI[…]]	78
COC(=O)CCC(=O)N1CCC([C@H]2c3ncc(Br)cc3CCc3cc(Cl)cc(Br)c32)CC1 [Example 48, (+)-METHYL 4-(3,10-DIBROMO-8-CHLORO-6,11-DIHYDRO-5H-BENZO[5,6]CYCLO-HEPTA[1,2-b]PYRIDIN-11(R)-YL)-GAMMA-OXO-1-PI[…]]	9
O=C(O)CCC(=O)N1CCC([C@H]2c3ncc(Br)cc3CCc3cc(Cl)cc(Br)c32)CC1 [Example 49, (+)-SODIUM 4-(3,10-DIBROMO-8-CHLORO-6,11-DIHYDRO-5H-BENZO[5,6]CYCLO-HEPTA[1,2-b]PYRIDIN-11(R)-YL)-GAMMA-OXO-1-PI[…]]	270

Same assay, conditions: read-out: FPT inhibition (percent inhibition)

Compound	inhibition at 0.0934 µM [%]
O=C(CCCN1C(=O)c2ccncc2C1=O)N1CCC(C2c3ncc(Br)cc3CCc3cc(Cl)cc(Cl)c32)CC1 (single isomer, unassigned) [Example 33, 4-(8,10-DICHLORO-3-BROMO-6,11-DIHYDRO-5H-BENZO[5,6]CYCLO-HEPTA[1,2-b]PYRIDIN-11-YL)-1-[4-(1,3-DIHYDRO-1,3-DIOXO-2H-PYRROLO-[3,4c]-PYRIDINE-2-YL)-1-OXOBUTYL]PIPERIDINE]	38.7
